Data: ChEMBL document CHEMBL2321844, “Discovery of nosokophic acid, a predicted intermediate of moenomycins, from nosokomycin-producing Streptomyces sp. K04-0144” (2013)
Values after ≈ are worked out from the molar mass of the structure shown. Active and inactive are the calls of the source. No cut-off for these calls is given here.

Assays:
Type in all cases: functional
[1] = tested on: Staphylococcus aureus; test: Potentiation of tetracycline antimicrobial activity against methicillin-resistant Staphylococcus aureus at 10 ug/ml after 20 hrs by liquid microdilution method
[2] = tested on: Staphylococcus aureus; test: Antimicrobial activity against methicillin-resistant Staphylococcus aureus after 20 hrs by liquid microdilution method
[3] = tested on: Staphylococcus aureus; test: Potentiation of streptomycin antimicrobial activity against methicillin-resistant Staphylococcus aureus at 10 ug/ml after 20 hrs by liquid microdilution method

Structure (SMILES)	fractional inhibitory concentration index (FICI) [1]	MIC [2] [µg/mL]	fractional inhibitory concentration index (FICI) [3]	Activity [2]
CN(C)[C@@H]1C(O)=C(C(N)=O)C(=O)[C@@]2(O)C(O)=C3C(=O)c4c(O)cccc4[C@@](C)(O)[C@H]3C[C@@H]12 [TETRACYCLINE]	1	32 (≈ 72 µM)		
C[C@@H](O)[C@H]1C(=O)N2C(C(=O)O)=C(SCCNC=N)C[C@H]12 [IMIPENEM ANHYDROUS]		16 (≈ 53.4 µM)		
CN[C@@H]1[C@H](O[C@H]2[C@H](O[C@H]3[C@H](O)[C@@H](O)[C@H](N=C(N)N)[C@@H](O)[C@@H]3N=C(N)N)O[C@@H](C)[C@]2(O)C=O)O[C@@H](CO)[C@H](O)[C@H]1O [STREPTOMYCIN]		2 (≈ 3.44 µM)	1	
CN[C@H](CC(C)C)C(=O)N[C@H]1C(=O)N[C@@H](CC(N)=O)C(=O)N[C@H]2C(=O)N[C@H]3C(=O)N[C@H](C(=O)N[C@H](C(=O)O)c4cc(O)cc(O)c4-c4cc3ccc4O)[C@H](O)c3ccc(c(Cl)c3)Oc3cc2cc(c3O[C@@H]2O[C@H](CO)[C@@H](O)[C@H](O)[C@H]2O[C@H]2C[C@](C)(N)[C@H](O)[C@H](C)O2)Oc2ccc(cc2Cl)[C@H]1O [VANCOMYCIN]		0.5 (≈ 0.345 µM)		
CC(C)=CCC/C(C)=C/CC/C(C)=C\COC(COP(=O)(O)O[C@H]1O[C@H](C(N)=O)[C@H](O)[C@H](O)[C@H]1O)C(=O)O (some centres not stated)				inactive
